This is an account of results in patent US11833181B1, “Method of treating or preventing Alzheimer's Disease” (KING FAISAL UNIVERSITY, priority 2023, dated 2023).

Several values for one entry are separate records, joined by “and”; a condition that tells them apart may be missing. Identical values can stand only once. Marks after values point to notes of the source that are not given here.

What all share (type): in vivo, rat
The test system of test [1] is aluminum chloride (AlCl3)-induced Alzheimer-like disease in rats. Briefly: Nitric oxide (nitrite) level in brain homogenate of AlCl3-induced Alzheimer-like rats. Here is the method:
(§1) The neuroprotective effects of silymarin (SM) were tested on the hippocampal tissues of aluminum chloride (AlCl3)-induced Alzheimer's-like disease in rats using biochemical, histological, and immune-histochemical examination. For this experiment, 42 mature male albino rats were divided equally into 6 groups each of 7 rats as follows: • Group I: Rats injected with distilled water and served as the control group (non-induced); • Group II: Rats injected with AlCl3; • Group III: Rats injected with AlCl3, then silymarin; • Group IV: Rats injected with AlCl3, then collagen; • Group V: Rats injected with AlCl3 then silymarin nanoparticles; • Group VI: Rats injected with AlCl3 then silymarin+collagen nanoparticles.
(§2) All of the experimental animals were sacrificed, and their brains dissected to take out the cortex section. The homogenates (10%, w/v) were then centrifuged at 10,000 rpm for 15 min and the supernatants were conserved at […] for subsequent biochemical evaluations to determine, oxidative stress markers, catalase activity, superoxide dismutase, glutathione peroxidase, glutathione reductase; and lipid peroxidation.
Nitric oxide was rapidly oxidized to nitrite (NO^2−) and/or nitrate (NO^3−) by oxygen. In this method, nitrite was first treated with a diazotizing reagent, e.g., sulfanilamide (SA), in acidic media to form a transient diazonium salt. This intermediate was then allowed to react with a coupling reagent, N-naphthyl-ethylene diamine, to form a stable azo compound. The intense purple color of the product allows nitrite assay with high sensitivity and can be used to measure nitrite concentration as low as […]. The absorbance of this adduct at 540 nm is linearly proportional to the nitrite concentration in the sample.
The reagents included sulphanilamide (10 mM), N-(1-naphthyl) ethylenediamine, (1 mM), and standard sodium nitrite solution (100 μM). To four test tubes, each containing 1 ml sulphanilamide, 100 μl of either homogenate (test), standard solution (standard), or distilled water (blank) were added. The four test tubes were incubated for 5 minutes at room temperature. Then, 100 μl N-(1-naphthyl) ethylene diamine was added to all tubes and allowed to stand for 20 min at room temperature. The absorbance of the test and standard was read at 540 nm against blank.
The homogenate NO level was calculated according to the following equation: NO level (μM/g protein)=[As Ast×Standard concentration×10]/total proteins, where; • As: Absorbance of the sample (homogenate); • Ast: Absorbance of standard; and • 10: The sample dilution factor.
(§3) Male albino rats were pretreated with one dose of the nano-formulation of 200 mg/kg/day for 15 days orally. The animals were then evaluated for neurobehavioral, infarct analysis, biochemical, histopathological studies.

Test [2] shares this test system. Briefly: Lipid peroxidation (TBARS) in brain homogenate of AlCl3-induced Alzheimer-like rats. Here is the method: as §1, §2
Lipid peroxidation was determined by measuring the thiobarbituric reactive substances (TBARS) in the homogenate where: Thiobarbituric acid+malondialdehyde Colored product+2 H2O Malondialdehyde (MDA), a major secondary product of lipid peroxidation (LPO) reacts with thiobarbituric acid (TBA), producing pink color adducts on heating. This reaction has been widely adopted as a sensitive method for lipid peroxidation that represents a major indicator of oxidative stress.
In four test tubes, homogenate supernatant (test) or water (blank) was added to 1 ml TCA and mixed well, then the solutions were centrifuged at 3000 rpm for 10 min. One milliliter of the supernatant of each of the previous four test tubes was added to 0.5 ml of TBA and heated for 30 min at 90° C. then cooled. The absorbance of samples (As) was read at 532 nm against blank.
The concentration of proteins was estimated. The levels of TBARS were calculated with the following equations:
For tissue homogenate: As: TBARS level (μmol/g protein)=(0.156×total protein×1000)×10, where; • As: absorbance of the sample (homogenate); • 0.156: molar extinction coefficient (μM−1 cm^−1); and • 10: the sample dilution factor.
as §3

Test [3] shares this test system. Briefly: Reduced glutathione (GSH) level in brain homogenate of AlCl3-induced Alzheimer-like rats. Here is the method:
as §1, §2
To determine homogenate reduced glutathione (GSH) level, GSH was allowed to react with 5,5′-dithio-bis-2-nitrobenzoic acid (DTNB) (equation below), known as Ellman's reagent, generating a yellow-colored 2-nitro-5-thiobenzoic acid product. DTNB+2 GSH Glutathione reductase 2-nitro-5-thiobenzoic acid
The reagents used included sulfosalicylic acid, 4%; phosphate buffer, 0.1 M, pH 7.4 and pH 8; DTNB, 10 mM, 19.8 mg in 10 ml phosphate buffer pH 8, and standard GSH, and 1 mg/dl (32.54 μM) in phosphate buffer pH 7.4.
Proteins in 0.1 ml of either homogenate supernatants (samples) were precipitated using 0.1 ml of 4% sulfosalicylic acid. The samples were kept at 4° C. for at least 1 hour and then subjected to centrifugation at 3000 rpm for 10 min at 4° C. The assay mixture contained 0.1 ml supernatant, 2.7 ml phosphate buffer (0.1 M, pH 7.4), and 0.2 ml DTNB in a total volume of 3 ml.
The standard and blank experiment was carried out as above using 0.1 ml of standard GSH and distilled water, respectively instead of samples. The absorbance of the developed yellow color of samples and standard was read against blank at 412 nm.
The tissue contents of GSH were estimated using the following equation; GSH level (μmol/g protein)=[As Ast×Standard concentration×10]/total proteins, • where; • As: Absorbance of the sample (homogenate); • Ast: Absorbance of standard; and • 10: The tissue dilution.
as §3

The test system is the same in test [4]. Nature of the test: Catalase activity in brain homogenate of AlCl3-induced Alzheimer-like rats. Here is the method: as §1, §2
Catalase reacts with a known quantity of H2O2. The reaction is stopped after exactly one minute with a catalase inhibitor. In the presence of peroxidase (HRP), remaining H2O2 reacts with 3,5-Dichloro-2-hydroxybenzene sulfonic acid (DHBS) and 4-aminophenazone (AAP) to form a chromophore with a color intensity inversely proportional to the amount of catalase in the original sample.
The reagents included: • buffer (Phosphate buffer, pH 7.0 Detergent)−100 mM/L; • H2O2 (substrate and standard) (Dilute 1000 times)−500 mM/L • Chromogen—Inhibitor— • Enzyme: Peroxidase 4-Aminoantipyrine Preservative->2000/L 2 mM/L.
as §3

The mark [5] stands for this setting: Table 1, single animal samples (code = group G + animal H), brain homogenate supernatant.
Setting [6] is: Table 2, value ± spread per treatment group, Example 5, nano-formulation 200 mg/kg/day for 15 days orally.

Take `[Cl][Al]([Cl])[Cl]` [AlCl3, aluminum chloride]: the NO was 61.67 μM/g protein and 65.00 μM/g protein in test [1] (setting [5]); 36.18 ± 0.58^bc in test [1] (setting [6]). In addition, the TBARS is 1.54 μmol/g protein and 1.48 μmol/g protein in test [2] (setting [5]); 0.68 ± 0.04^bc in test [2] (setting [6]). Also, the GSH in test [3] (setting [5]) is 12.06 μmol/g protein and 14.51 μmol/g protein; in test [3] (setting [6]) it was 19.03 ± 3.89^bc. For the same molecule, the Catalase in test [4] (setting [5]) is 54 U/g and 65 U/g; in test [4] (setting [6]), 84.33 ± 17.27^bc.
Take collagen: the NO in test [1] (setting [5]) was 37.22 μM/g protein and 36.11 μM/g protein; in test [1] (setting [6]), 34.91 ± 0.83^bc. Also, the TBARS in test [2] (setting [5]) was 0.74 μmol/g protein and 0.60 μmol/g protein; in test [2] (setting [6]), 0.71 ± 0.01^bc. Further, the GSH is 24.78 μmol/g protein and 11.61 μmol/g protein in test [3] (setting [5]); 14.44 ± 0.58^b in test [3] (setting [6]). Moreover, the Catalase in test [4] (setting [5]) is 111 U/g and 52 U/g; in test [4] (setting [6]), 62.33 ± 1.45^b.
